# Target: human DGKζ (Homo sapiens (Human), UniProt Q13574)
# Assay: Human DGKζ kinase activity inhibition assay (ADP-Glo)
# Assay type: biochemical
# Conditions: in vitro human DGKζ kinase activity inhibition assay; read-out: IC50
# In short: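 Enzyme was C-terminally FLAG-tagged full-length recombinant human DGKζ from baculovirus-infected insect cells. Substrate preparation used octyl-β-D-glucopyranoside in 50 mM MOPS pH 7.4 with sonication; ADP generated was quantified by ADP-Glo luminescence as activity measure.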
# human DGKζ, sequence (Q13574 other isoform, or with tags, fused parts or gaps): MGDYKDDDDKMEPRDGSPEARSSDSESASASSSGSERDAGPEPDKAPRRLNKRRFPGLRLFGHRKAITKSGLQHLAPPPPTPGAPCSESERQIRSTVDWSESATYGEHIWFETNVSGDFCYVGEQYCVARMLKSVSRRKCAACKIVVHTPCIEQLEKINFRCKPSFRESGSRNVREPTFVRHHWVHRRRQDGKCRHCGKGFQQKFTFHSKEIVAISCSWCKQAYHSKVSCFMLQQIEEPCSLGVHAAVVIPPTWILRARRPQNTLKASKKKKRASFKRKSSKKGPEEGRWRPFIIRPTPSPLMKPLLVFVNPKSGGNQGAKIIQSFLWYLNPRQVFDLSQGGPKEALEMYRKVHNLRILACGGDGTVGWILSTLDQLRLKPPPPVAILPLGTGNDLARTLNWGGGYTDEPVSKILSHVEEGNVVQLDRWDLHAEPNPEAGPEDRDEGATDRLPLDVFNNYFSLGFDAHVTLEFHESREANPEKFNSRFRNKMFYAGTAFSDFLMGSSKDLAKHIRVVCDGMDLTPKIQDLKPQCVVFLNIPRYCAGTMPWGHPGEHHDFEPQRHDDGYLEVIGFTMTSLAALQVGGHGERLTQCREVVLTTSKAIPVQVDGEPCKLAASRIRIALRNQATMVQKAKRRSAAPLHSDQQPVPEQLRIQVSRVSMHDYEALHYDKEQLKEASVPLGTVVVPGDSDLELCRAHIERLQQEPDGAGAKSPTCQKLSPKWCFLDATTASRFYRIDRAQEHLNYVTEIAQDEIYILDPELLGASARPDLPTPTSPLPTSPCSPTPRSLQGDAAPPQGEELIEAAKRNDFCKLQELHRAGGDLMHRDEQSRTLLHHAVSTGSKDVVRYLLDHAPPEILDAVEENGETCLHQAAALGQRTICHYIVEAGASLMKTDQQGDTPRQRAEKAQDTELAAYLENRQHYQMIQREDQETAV
row,Compound,IC50 [nM]
1,"CC(C(N)=O)N(c1ccc2c(c1)OC(F)(F)O2)c1nc(N)c(C(=O)c2ccc(OC(F)F)nc2)s1 (racemic) [Example 216, rac-2-[[4-amino-5-[6-(difluoromethoxy)pyridine-3-carbonyl]thiazol-2-yl]-(2,2-difluoro-1,3-benzodioxol-5-yl)amino]propanamide]",32
2,"CC1CCCN(C(=O)COc2ccc(C(=O)c3sc(N(c4ccc(F)cc4)C(C)C(N)=O)nc3N)cc2)C1 (racemic) [Example 128, 2-(N-[4-amino-5-[4-[2-(3-methyl-1-piperidyl)-2-oxo-ethoxy]benzoyl]thiazol-2-yl]-4-fluoro-anilino)propanamide]",72.2
3,"CC(C(N)=O)N(c1ccc2c(c1)OCO2)c1nc(N)c(C(=O)c2ccccc2)s1 (racemic) [Example 196, rac-2-[(4-amino-5-benzoyl-thiazol-2-yl)-(1,3-benzodioxol-5-yl)amino]propanamide]",128
4,"CC(C(N)=O)N(c1cnn(C)c1)c1nc(N)c(C(=O)c2ccccc2)s1 (single isomer, unassigned) [Example 78.2, 2-[(4-amino-5-benzoyl-thiazol-2-yl)-(1-methylpyrazol-4-yl)amino]propanamide]",7550
5,"CC(C(N)=O)N(c1ccc(F)cc1)c1nc(N)c(C(=O)c2ccc3c(c2)CCC3)s1 (racemic) [Example 31, rac-2-(N-[4-amino-5-(indane-5-carbonyl)thiazol-2-yl]-4-fluoro-anilino)propanamide]",43.5
6,"CC(Oc1ccc(C(=O)c2sc(N(c3ccccc3)C(C)C(N)=O)nc2N)cc1)C(N)=O (racemic) [Example 45, 2-(N-[4-amino-5-[4-[2-amino-1-methyl-2-oxo-ethoxy]benzoyl]thiazol-2-yl]anilino)propanamide]",338
7,"CC(C(N)=O)N(c1ccc(Cl)cc1)c1nc(N)c(C(=O)c2ccccc2)s1 (racemic) [Example 34, rac-2-(N-(4-amino-5-benzoyl-thiazol-2-yl)-4-chloro-anilino)propanamide]",34.4
8,"COc1ccc(C(=O)c2sc(N(c3ccc(Cl)c(F)c3)C(C)C(N)=O)nc2N)cn1 (single isomer, unassigned) [Example 172.2, 2-(N-[4-amino-5-(6-methoxypyridine-3-carbonyl)thiazol-2-yl]-4-chloro-3-fluoro-anilino)propanamide]",4890
9,"COc1ccc(C(=O)c2sc(N(c3ccc(F)c(F)c3)C(C)C(N)=O)nc2N)cn1 (single isomer, unassigned) [Example 52.2, 2-(N-[4-amino-5-(6-methoxypyridine-3-carbonyl)thiazol-2-yl]-3,4-difluoro-anilino)propanamide]",11400
10,"Cc1ccccc1N(c1nc(N)c(C(=O)c2ccccc2)s1)C(C)C(N)=O (single isomer, unassigned) [Example 77.1, 2-(N-(4-amino-5-benzoyl-thiazol-2-yl)-2-methyl-anilino)propanamide]",234
11,"CC(C(N)=O)N(c1ccc(F)cc1)c1nc(N)c(C(=O)c2ccc(N3CCC(C(F)(F)F)CC3)nc2)s1 (racemic) [Example 275, rac-2-(N-[4-amino-5-[6-[4-(trifluoromethyl)-1-piperidyl]pyridine-3-carbonyl]thiazol-2-yl]-4-fluoro-anilino)propanamide]",29
12,"CC(C(N)=O)N(c1ccc(OC(F)F)nc1)c1nc(N)c(C(=O)c2ccc(OC(F)F)cc2)s1 (racemic) [Example 254, rac-2-[[4-amino-5-[4-(difluoromethoxy)benzoyl]thiazol-2-yl]-[6-(difluoromethoxy)-3-pyridyl]amino]propanamide]",32
13,"CC(C(N)=O)N(c1ccc(C(F)F)cc1)c1nc(N)c(C(=O)c2ccc(Cl)cc2)s1 (racemic) [Example 244, rac-2-[N-[4-amino-5-(4-chlorobenzoyl)thiazol-2-yl]-4-(difiuoromethyl)anilino]propanamide]",30
14,"CC(C(N)=O)N(c1ccc(F)cc1)c1nc(N)c(C(=O)c2ccc(C(F)(F)F)nc2)s1 (single isomer, unassigned) [Example 29.1, 2-(N-[4-amino-5-[6-(trifluoromethyl)pyridine-3-carbonyl]thiazol-2-yl]-4-fluoro-anilino)propanamide]",12500
15,"CC(C(N)=O)N(c1ccc(OC(F)(F)F)c(Cl)c1)c1nc(N)c(C(=O)c2ccccc2)s1 (racemic) [Example 211, rac-2-[N-(4-amino-5-benzoyl-thiazol-2-yl)-3-chloro-4-(trifluoromethoxy)anilino]propanamide]",183
16,"CC(C(N)=O)N(c1ccc(F)cc1)c1nc(N)c(C(=O)c2ccc(Cl)cc2)s1 (single isomer, unassigned) [Example 38.1, 2-(N-[4-amino-5-(4-chlorobenzoyl)thiazol-2-yl]-4-fluoro-anilino)propanamide]",2000
17,"CC(C(N)=O)N(c1ccc(F)cc1)c1nc(N)c(C(=O)c2ccc(N3CCC(C)(C)CC3)nc2)s1 (racemic) [Example 279, rac-2-(N-[4-amino-5-[6-(4,4-dimethyl-1-piperidyl)pyridine-3-carbonyl]thiazol-2-yl]-4-fluoro-anilino)propanamide]",48

row,Compound,IC50 [nM]
1,"COc1ccc(C(=O)c2sc(N(c3ccc(Cl)cc3)C(C)C(N)=O)nc2N)cc1 (single isomer, unassigned) [Example 58.1, 2-(N-[4-amino-5-(4-methoxybenzoyl)thiazol-2-yl]-4-chloro-anilino)propanamide]",8
2,"CC(C(N)=O)N(c1ccc(OC(F)(F)F)cc1)c1nc(N)c(C(=O)c2ccc(F)cc2)s1 (single isomer, unassigned) [Example 27.2, 2-[N-(4-amino-5-(4-fluorobenzoyl)thiazol-2-yl]-4-(trifluoromethoxy)anilino]propanamide]",43.6
3,"CC(C(N)=O)N(c1ccc(F)cc1)c1nc(N)c(C(=O)c2ccc(C(=O)NCc3ccccc3)cc2)s1 (racemic) [Example 262, rac-4-[4-amino-2-(N-(2-amino-1-methyl-2-oxo-ethyl)-4-fluoro-anilino)thiazole-5-carbonyl]-N-benzyl-benzamide]",6
4,"CC(C(N)=O)N(c1nc(N)c(C(=O)c2ccccc2)s1)c1ccc(F)cc1Cl (racemic) [Example 11, rac-2-(N-(4-amino-5-benzoyl-thiazol-2-yl)-2-chloro-4-fluoro-anilino)propanamide]",406
5,"Cc1ccc(N(c2nc(N)c(C(=O)c3ccccc3)s2)C(C)C(N)=O)cc1 (single isomer, unassigned) [Example 73.1, 2-(N-(4-amino-5-benzoyl-thiazol-2-yl)-4-methyl-anilino)propanamide]",3720
6,"CC(C(N)=O)N(c1ccc(Cl)c(OC(F)F)c1)c1nc(N)c(C(=O)c2ccccc2)s1 (racemic) [Example 238, rac-2-[N-(4-amino-5-benzoyl-thiazol-2-yl)-4-chloro-3-(difluoromethoxy)anilino]propanamide]",667
7,"CC(C(N)=O)N(c1ccc(OC(F)F)c(F)c1)c1nc(N)c(C(=O)c2ccc(OC(F)F)cc2)s1 (racemic) [Example 207, rac-2-[N-[4-amino-5-[4-(difluoromethoxy)benzoyl]thiazol-2-yl]-4-(difluoromethoxy)-3-fluoro-anilino]propanamide]",22
8,"CC(C(N)=O)N(c1ccc(OC(F)(F)F)nc1)c1nc(N)c(C(=O)c2ccc(OC(F)F)cc2)s1 (racemic) [Example 250, rac-2-[[4-amino-5-[4-(difluoromethoxy)benzoyl]thiazol-2-yl]-[6-(trifluoromethoxy)-3-pyridyl]amino]propanamide]",36
9,"CC(C(N)=O)N(c1ccc(Cl)cc1)c1nc(N)c(C(=O)c2ccncc2)s1 (single isomer, unassigned) [Example 57.1, 2-(N-[4-amino-5-(pyridine-4-carbonyl)thiazol-2-yl]-4-chloro-anilino)propanamide]",137
10,"CC(C(N)=O)N(c1ccc(F)c(F)c1)c1nc(N)c(C(=O)c2ccc(OCc3ccccc3)cc2)s1 (single isomer, unassigned) [Example 165.2, 2-(N-[4-amino-5-(4-benzyloxybenzoyl)thiazol-2-yl]-3,4-difluoro-anilino)propanamide]",331
11,"CC(C(N)=O)N(c1ccc(F)cc1)c1nc(N)c(C(=O)c2ccc(OCC(=O)N3CCC[C@H]3C(N)=O)cc2)s1 (mixture of isomers) [Example 110, (2S)-1-[2-[4-[4-amino-2-(N-[2-amino-(1RS)-methyl-2-oxo-ethyl]-4-fluoro-anilino)thiazole-5-carbonyl]phenoxy]acetyl]pyrrolidine-2-carboxamide]",366
12,"CC(C(N)=O)N(c1ccc(F)cc1)c1nc(N)c(C(=O)c2ccc(OCC(=O)NCC(O)CO)cc2)s1 (racemic) [Example 147, 2-(N-[4-amino-5-[4-[2-((2RS),3-dihydroxypropylamino)-2-oxo-ethoxy]benzoyl]thiazol-2-yl]-4-fluoro-anilino)propanamide]",291
13,"CC(C(N)=O)N(c1ccc(F)c(F)c1)c1nc(N)c(C(=O)c2ccc(OC(F)F)nc2)s1 (single isomer, unassigned) [Example 163.2, 2-(N-[4-amino-5-[6-(difluoromethoxy)pyridine-3-carbonyl]thiazol-2-yl]-3,4-difluoro-anilino)propanamide]",1090
14,"COc1ccc(CNC(=O)COc2ccc(C(=O)c3sc(N(c4ccc(F)cc4)C(C)C(N)=O)nc3N)cc2)cc1 (racemic) [Example 124, rac-2-(N-[4-amino-5-[4-[2-[(4-methoxyphenyl)methylamino]-2-oxo-ethoxy]benzoyl]thiazol-2-yl]-4-fluoro-anilino)propanamide]",48.3
15,"CC(C(N)=O)N(c1ccc(C(F)(F)F)cc1)c1nc(N)c(C(=O)c2ccc(OC(F)F)cc2)s1 (single isomer, unassigned) [Example 43.2]",5.93
16,"CC(C(N)=O)N(c1ccc(F)cc1)c1nc(N)c(C(=O)c2ccc(OCC(=O)NC34CC5CC(CC(C5)C3)C4)cc2)s1 (single isomer, unassigned) [Example 142, 2-(N-[5-[4-[2-(1-adamantylamino)-2-oxo-ethoxy]benzoyl]-4-amino-thiazol-2-yl]-4-fluoro-anilino)propanamide]",14.5

# From US11964953B2, “Substituted aminothiazoles as DGKzeta inhibitors for immune activation” (Bayer Aktiengesellschaft, priority 2020, dated 2024)
